Source: patent publication US8324245B2, “Quinoline derivative and quinazoline derivative inhibiting self-phosphorylation of hepatocytus proliferator receptor, and medicinal composition containing the same” (Kyowa Hakko Kirin Co., Ltd., priority 2001, dated 2012)

Key:
[1] = target: T1, met (HGF receptor) in human gastric cancer cells MKN45 (Homo sapiens, UniProt P08581); assay: Inhibitory activity against met-autophosphorylation using ELISA method (2), MKN45 cells, HGF-independent; format: cell-based
T1 construct: endogenous in cells; host or cells: MKN45 human gastric cancer cells
T1 sequence (P08581 25-1390): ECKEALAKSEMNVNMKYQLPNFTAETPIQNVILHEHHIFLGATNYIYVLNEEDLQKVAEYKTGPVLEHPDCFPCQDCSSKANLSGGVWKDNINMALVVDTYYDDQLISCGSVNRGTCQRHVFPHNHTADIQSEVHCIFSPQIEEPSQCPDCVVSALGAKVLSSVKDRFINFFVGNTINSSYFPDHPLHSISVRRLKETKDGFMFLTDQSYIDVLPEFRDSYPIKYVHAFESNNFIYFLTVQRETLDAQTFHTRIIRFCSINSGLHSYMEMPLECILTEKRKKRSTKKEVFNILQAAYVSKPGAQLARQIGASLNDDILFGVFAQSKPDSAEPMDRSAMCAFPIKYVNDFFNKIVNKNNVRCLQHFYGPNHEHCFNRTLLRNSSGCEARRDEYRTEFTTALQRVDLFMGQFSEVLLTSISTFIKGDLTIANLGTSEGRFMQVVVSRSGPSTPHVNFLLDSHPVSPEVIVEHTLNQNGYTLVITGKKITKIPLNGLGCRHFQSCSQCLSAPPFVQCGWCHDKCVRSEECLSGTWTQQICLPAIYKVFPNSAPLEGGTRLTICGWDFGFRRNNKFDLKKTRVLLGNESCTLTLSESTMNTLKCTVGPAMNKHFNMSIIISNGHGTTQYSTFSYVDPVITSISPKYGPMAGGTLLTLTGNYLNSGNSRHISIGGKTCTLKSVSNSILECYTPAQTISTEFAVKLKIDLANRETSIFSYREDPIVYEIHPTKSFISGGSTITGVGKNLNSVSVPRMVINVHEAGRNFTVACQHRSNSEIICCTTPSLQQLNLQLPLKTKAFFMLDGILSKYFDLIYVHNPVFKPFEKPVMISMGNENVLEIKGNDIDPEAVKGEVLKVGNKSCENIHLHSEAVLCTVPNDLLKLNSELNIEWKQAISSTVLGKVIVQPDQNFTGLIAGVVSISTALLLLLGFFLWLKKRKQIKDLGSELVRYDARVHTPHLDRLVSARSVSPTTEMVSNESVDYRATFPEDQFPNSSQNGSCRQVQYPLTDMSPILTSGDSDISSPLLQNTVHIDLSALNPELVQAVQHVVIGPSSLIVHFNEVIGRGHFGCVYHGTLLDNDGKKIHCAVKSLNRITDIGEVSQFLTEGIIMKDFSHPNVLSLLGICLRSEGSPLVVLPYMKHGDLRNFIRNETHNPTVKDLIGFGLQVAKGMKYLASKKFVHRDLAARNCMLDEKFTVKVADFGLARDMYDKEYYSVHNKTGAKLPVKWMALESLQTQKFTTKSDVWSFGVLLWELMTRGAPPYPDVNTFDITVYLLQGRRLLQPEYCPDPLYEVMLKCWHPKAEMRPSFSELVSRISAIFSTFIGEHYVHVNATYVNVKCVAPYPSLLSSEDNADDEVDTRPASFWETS
Summary of the method: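 MKN45 cells, 3×10^4 per well in RPMI with 0.1% FCS overnight, were exposed to compound in DMSO for 1 h at 37 °C without HGF. Lysates were captured on anti-phosphotyrosine (PY20) plates, Met detected with anti-Met and peroxidase secondary antibody, absorbance at 450 nm.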

[2] = test system: human pancreatic cancer cells (SUIT-2); assay: Tumor growth inhibitory activity against various human tumor cells in nude mice: SUIT-2; format: in vivo; conditions: SUIT-2, Oral, 25 × 1 mg/kg × number of times, 5 days
Description: (§1) Human gastric cancer cells (MKN 45) (obtained from RIKEN), human brain tumor cells (U87MG) (obtained from ATCC), human pancreatic cancer cells (KP4) (obtained from RIKEN), human pancreatic cancer cells (SUIT-2) (obtained from National Kyushu Cancer Center), and human signet-ring type gastric cancer cells (NUGC-4) (obtained from RIKEN), or human lung cancer cells (LC6) (obtained from Central Laboratories for Experimental Animals) were transplanted into nude mice. […] The test compound suspended in 0.5% methylcellulose was orally administered once or twice a day for 5 days. Only 0.5% methylcellulose was administered to the control group in the manner as in the test groups. […] The tumor growth inhibition rate (TGIR) was calculated as follows: The tumor growth inhibition rate (TGIR)=(1−TX/CX)×100 wherein CX represents the relative tumor volume at the 5th day for the control group when the tumor volume at the day of the start of the administration was presumed to be 1; and TX represents the relative tumor volume for test compound administration groups.

[3] = test system: human pancreatic cancer cells (KP4); assay: Tumor growth inhibitory activity against various human tumor cells in nude mice: KP4; format: in vivo; conditions: KP-4, Oral, 5 days
Description: (§2) Human gastric cancer cells (MKN 45) (obtained from RIKEN), human brain tumor cells (U87MG) (obtained from ATCC), human pancreatic cancer cells (KP4) (obtained from RIKEN), human pancreatic cancer cells (SUIT-2) (obtained from National Kyushu Cancer Center), and human signet-ring type gastric cancer cells (NUGC-4) (obtained from RIKEN), or human lung cancer cells (LC6) (obtained from Central Laboratories for Experimental Animals) were transplanted into nude mice. […] The test compound suspended in 0.5% methylcellulose was orally administered once or twice a day for 5 days. Only 0.5% methylcellulose was administered to the control group in the manner as in the test groups. Alternatively, the test compound dissolved in physiological saline (with a 1 N aqueous hydrochloric acid solution added thereto) was intraveneously injected once a day for 5 days, and only physiological saline (with a 1 N aqueous hydrochloric acid solution added thereto) was administered to the control group in the same manner as in the test groups. The tumor growth inhibition rate (TGIR) was calculated as follows: The tumor growth inhibition rate (TGIR)=(1−TX/CX)×100 wherein CX represents the relative tumor volume at the 5th day for the control group when the tumor volume at the day of the start of the administration was presumed to be 1; and TX represents the relative tumor volume for test compound administration groups.

[4] = target: T2, met (HGF receptor) in human epidermal cancer cells A431 (Homo sapiens, UniProt P08581); assay: Inhibitory activity against met-autophosphorylation using ELISA method (1), HGF-stimulated A431 cells; format: cell-based; conditions: HGF 50 ng/ml stimulation, read-out: IC50 (concentration necessary for inhibiting 50% of met phosphorylation)
T2 construct: endogenous in cells; host or cells: A431 human epidermal cancer cells
T2 sequence (P08581 25-1390): as above
Description: Human epidermal cancer cells A431 were cultured in an RPMI 1640 medium containing 10% fetal calf serum (purchased from GIBCO BRL) within a 5% carbon dioxide incubator until 50 to 90% confluent. Cells were cultured with RPMI medium containing 0.1% fetal calf serum in 96-well flat-bottom plate in an amount of 3×10^4 per well, and were incubated at 37° C. overnight. The medium was then replaced by a fresh RPMI medium containing 0.1% fetal calf serum. A solution of the test compound in dimethyl sulfoxide was added to each well, and the cells were incubated at 37° C. for additional one hr. A human recombinant hepatocyte growth factor (hereinafter abbreviated to “HGF”) was added to a final concentration of 50 ng/ml, and the stimulation of cells was carried out at 37° C. for 5 min. The medium was removed, the cells were washed with phosphate buffered saline (pH 7.4), and 50 μl of lysis buffer (20 mM HEPES (pH 7.4), 150 mM NaCl, 0.2% Triton X-100, 10% glycerol, 5 mM sodium orthovanadylate, 5 mM disodium ethylenediaminetetraacetate, and 2 mM Na4P2O7) was then added thereto. […]
Separately, phosphate buffered saline (50 μl, pH 7.4) containing 5 μg/ml of anti-phospho-tyrosine antibody (PY20; purchased from Transduction Laboratories) was added to a microplate for ELISA (Maxisorp; purchased from NUNC), followed by gentle agitation at 4° C. overnight to coat the surface of the wells with the antibody. […] After washing, the whole quantity of the cell extract was transferred to the wells, and the plate was then allowed to incubate at 4° C. overnight. […] After a suitable level of color development, a reaction termination solution was added to stop the reaction, and the absorbance at 450 nm was measured with a microplate reader. The met-phosphorylation inhibitory activity for each well was determined by presuming the absorbance with the addition of HGF and the vehicle to compounds to be 0% met-phosphorylation inhibitory activity and the absorbance with the addition of the vehicle to compounds and without HGF to be 100% met phosphorylation inhibitory activity. […]

[5] = test system: human signet-ring type gastric cancer cells (NUGC-4); assay: Tumor growth inhibitory activity against various human tumor cells in nude mice: NUGC-4; format: in vivo; conditions: NUGC-4, Oral, 30 × 2 mg/kg × number of times, 5 days
Description: as §1

[6] = test system: Human gastric cancer cells (MKN 45); assay: Tumor growth inhibitory activity against human gastric cancer cells (MKN 45) in nude mice; format: in vivo; conditions: oral, twice a day for 5 days
Description: Human gastric cancer cells (MKN 45) were transplanted into nude mice. […] The test compound suspended in 0.5% methylcellulose was orally administered twice a day for 5 days.
(§3) Only 0.5% methylcellulose was administered to the control group in the manner as in the test groups. The tumor growth inhibition rate (TGIR) was calculated as follows: The tumor growth inhibition rate (TGIR)=(1−TX/CX)×100 wherein CX represents the relative tumor volume at day X for the control group when the tumor volume at the day of the start of the administration was presumed to be 1; and TX represents the relative tumor volume for test compound administration groups.

[7] = test system: human lung cancer cells (LC6); assay: Tumor growth inhibitory activity against various human tumor cells in nude mice: LC6; format: in vivo; conditions: LC6, Oral, 30 × 2 mg/kg × number of times, 5 days
Description: as §2

[8] = test system: Human brain tumor cells (U87MG); assay: Tumor growth inhibitory activity against human brain tumor cells (U87MG) in nude mice; format: in vivo; conditions: oral, twice a day for 5 days
Description: Human brain tumor cells (U87MG) were transplanted into nude mice. […] The test compound suspended in 0.5% methylcellulose was orally administered twice a day for 5 days.
as §3

| IC50 [1] [nM] | IC50 [4] [nM] | SMILES | TGIR [2] [%] | TGIR ([3]; 12.5 × 1 mg/kg × number of times) [%] | TGIR ([3]; 25 × 1 mg/kg × number of times) [%] | TGIR ([3]; 50 × 1 mg/kg × number of times) [%] | TGIR [5] [%] | TGIR (tumor growth inhibition rate) ([6]; dose 10 mg/kg/time) [%] | TGIR (tumor growth inhibition rate) ([6]; dose 30 mg/kg/time) [%] | TGIR [7] [%] | TGIR ([3]; 30 × 2 mg/kg × number of times) [%] | TGIR ([8]; 30 mg/kg/time) [%] | TGIR ([8]; 100 mg/kg/time) [%] | TGIR ([8]; 10 mg/kg/time) [%] |
| --- | --- | --- | --- | --- | --- | --- | --- | --- | --- | --- | --- | --- | --- | --- |
| 21.1 |  | COc1cc2c(Oc3ccc(NC(=S)NC(=O)Cc4ccc(F)cc4)cc3F)ccnc2cc1OCC(O)CN1CCOCC1 (centres unmarked) [Example 313, 1-{3-Fluoro-4-[7-(2-hydroxy-3-morpholin-4-yl-propoxy)-6-methoxy-quinolin-4-yloxy]-phenyl}-3-[2-(4-fluorophenyl)-acetyl]-thiourea] | 28 | 34 | 45 | 48 |  |  |  |  |  |  |  |  |
| 30.4 | 19.7 | COc1cc2nccc(Oc3ccc(NC(=O)NC(=O)Cc4ccc(F)cc4)c(F)c3)c2cc1OC [Example 3, N-[4-(6,7-dimethoxyquinolin-4-yloxy)-2-fluoro-phenyl]-N′-[2-(4-fluorophenyl)acetyl]urea] |  |  |  |  | 71 | 24 | 52 | 18 | 31 | 51 | 60 |  |
| 18.1 | 11.8 | COc1cc2nccc(Oc3ccc(NC(=S)NC(=O)Cc4ccc(F)cc4)cc3F)c2cc1OC [Example 2, N-[4-(6,7-dimethoxyquinolin-4-yloxy)-3-fluoro-phenyl]-N′-[2-(4-fluorophenyl)acetyl]thiourea] |  |  |  |  | 75 | 31 | 65 | 27 | 54 | 61 |  | 38 |
